Source: article PMC6151802, “A New Series of Cytotoxic Pyrazoline Derivatives as Potential Anticancer Agents that Induce Cell Cycle Arrest and Apoptosis” (Molecules : A Journal of Synthetic Chemistry and Natural …, 2017)

Experiments:
[1] = system: A549 human lung adenocarcinoma cell line; assay: MTT antiproliferative assay, A549; format: cell-based; settings: 48 h treatment
Protocol: (§1) The antiproliferative activity of 1b–12b against three human cancer cell lines (include HepG-2 human hepatoma cell line, Hela human cervical carcinoma cell line and A549 human lung adenocarcinoma cell line) and NIH/3T3 mouse embryonic fibroblast cells were evaluated by the MTT assay (Table 2). […] For Hela cells, the antiproliferative activity of some of the derivatives were similar to that of cis-DDP. […] We selected compound 1b and cis-DDP to generate growth-inhibitory curves (Figure 1) against HepG-2 cells and Hela cells.
(§2) A MTT assay was developed to monitor mammalian cell survival and proliferation in vitro [29]. HepG-2 cells, Hela and A549 cells from the China Center for Type Culture Collection (CCTCC, Wuhan, China) were cultivated in RPMI-1640 medium supplemented with 10% fetal bovine serum (ν/ν), 100 U/mL penicillin, and […] streptomycin. Cells (5 × 10^3 cell/well) at the log phase of their growth cycle were added to each well of a 96-well plate and incubated for 24 h at 37 °C in a humidified atmosphere of 5% CO2. Then, cells were treated with or without test compounds at different concentrations. After 48 h, 5 mg/mL MTT solution (20 μL per well) was added. Cells were incubated at 37 °C. After 4 h, the MTT solution was removed and DMSO was added to each well (150 μL). Eight to twelve minutes later, the optical density (OD) values were measured at room temperature at a wavelength of 595 nm on a FilterMax F3/F5 Microplate Reader (Molecular Devices, Sydney, Australia). In this experiment, 5 mg/mL of cisplatin was used as the positive control and 0.1% DMSO was used as the negative reference. Each assay was carried out at least three times.

[2] = system: HepG-2 human hepatoma cell line; assay: MTT antiproliferative assay, HepG-2; format: cell-based; settings: for IC50: MTT, 48 h treatment; for SI (selectivity index): SI = IC50, NIH/3T3/IC50, HepG-2
Protocol: as §1, §2

[3] = system: Hela human cervical carcinoma cell line; assay: MTT antiproliferative assay, Hela; format: cell-based; settings: 48 h treatment
Protocol: as §1, §2

[4] = system: NIH/3T3 mouse embryonic fibroblast cells; assay: MTT cytotoxicity assay, NIH/3T3 normal cells; format: cell-based; settings: 48 h treatment, read-out: IC50 NIH/3T3 Cell Line
Protocol: as §1, §2

HepG-2 cells [5] = assay: Plate colony formation (clonogenic survival) assay; format: cell-based, human; settings: different concentrations of 1b
Protocol: To assess the antiproliferative effect of compound 1b (Figure 2), we analyzed clonogenicity of HepG-2 cells after the treatment with 1b for 48 h.
Additionally, we used plate colony formation assay to evaluate the colony formation ability of HepG-2 cells. The cells were seeded in the complete medium in 6-well plate at 600 cells per well. After attachment, cells were exposed to different concentrations of compound 1b. After 7 days, the cells were fixed with paraformaldehyde for 20 min and stained with 1% crystal violet solution for 30 min to observe colonies.

HepG-2 cells [6] = assay: Cellular apoptosis by Annexin V-FITC/PI flow cytometry; format: cell-based, human; settings: 24 h; for total percentage of apoptotic cells (early and late, Q2 + Q3): vehicle 2.921%
Protocol: To examine the potency of the cancer cell apoptosis effect of 1b on HepG-2 cells, the number of apoptotic cells was monitored using flow cytometry. […] The total percentage of apoptotic cells (early and late, Q2 + Q3) was 2.921% when treated with vehicle alone.
HepG-2 cells (2.0 × 10^5 cells/well) were plated in a 6-well plate and allowed to adhere. After 24 h, the medium was replaced with fresh culture medium containing compound 1b at final concentrations of 2.5, 5, and 10 μmol/L at 37 °C. After 24 h, the cells were harvested and staining solution was added (containing 5 μL Annexin V-FITC and 5 μL PI). The cells were then incubated for 15 min at 20–25 °C in the dark. The samples were then detected in a FACScalibur BD Accuri^TM C6 flow cytometer. Analyses were performed by the software supplied with the instrument.

HepG-2 cells [7] = assay: Flow cytometric analysis of cell cycle distribution (PI); format: cell-based, human; settings: 24 h, control 9.97%
Excerpt: Cell cycle arrest is an important sign for inhibition of proliferation and the series of events that take place in a cell leading to its division and replication. […] Compound 1b was chosen for intensive mechanism study on HepG-2 cells because of its highest selectivity index (SI) value of 14.5. After the inhibitory effect of 1b on cell proliferation was observed, we next assessed the effect on the cell cycle distribution of HepG-2 cells by flow cytometry (Figure 3). […] This represented a remarkable difference from 9.97% in the control group (p < 0.05). These findings confirmed that compound 1b could influence HepG-2 cell cycle progression at low micromolar concentrations in a dose-dependent manner.
For flow cytometric analysis of the DNA content, HepG-2 cells (2.0 × 10^5 cells/well) in exponential growth were plated in 6-well plates and incubated for 24 h and then incubated with different concentrations (2.5, 5 and 10 μmol/L) of compound 1b at 37 °C for 24 h. After 24 h treatment, cells were collected, centrifuged, and fixed with ice-cold ethanol (70%) overnight 4 °C. The cells were washed twice with PBS and then treated with lysis buffer containing RNase A (Sigma, St. Louis, MO, USA), which was kept in a lukewarm bath at 37 °C, for 30 min, sequentially, and stained with PI and kept in the dark for 30 min [30]. Then, the samples were analyzed by a flow cytometer (FACSCalibur, BD Accuri^TM C6 BD Instruments Inc., New York, NY, USA). Each experiment was performed in triplicate. DNA histograms were analyzed using Mod Fit (version 3.2) for Windows (Verity Software House, New York, NY, USA).

HepG-2 cells [8] = assay: Western blot analysis of apoptosis-related proteins; format: cell-based, human; settings: 2.5, 5 and 10 μM, 24 h
Protocol: To explore the mechanisms underlying apoptosis of compound 1b in HepG-2 cells, the characteristics of apoptosis including p53, caspase 3 and PARP cleavage were examined. […] The features of apoptosis appeared to occur in a dose-dependent manner. Furthermore, we measured the effect of 1b on expression of anti-apoptotic protein Bcl-2 and pro-apoptotic protein Bax in HepG-2 cells.
HepG-2 cells (1.0 × 10^6 cells/well) were seeded in six-well plates. After treatment with compound 1b for 24 h, the preparation of total protein samples from the culture cells for immunoblotting was carried out as previously described. For gel electrophoresis (Novex® NuPAGE® SDS-PAG, Thermo, Waltham, MA, USA), 30–50 μg of protein was used per well. Then the proteins were separated by SDS-PAGE and electroblotted to nitrocellulose membrane. The membrane was incubated with the following indicated antibody: Bcl-2, Bax, caspase-3, p53, PARP and β-actin (Cell Signaling Technology, Beverly, MA, USA) for 12 h at 4 °C. The antibodies were used in […] 5% BSA-TBS-T. The blots were washed four times and then incubated with horseradish peroxidase-conjugated secondary antibody (Santa Cruz Biotechnology Laboratories. Santa Cruz, CA, USA) for 1.5 h at room temperature. β-Actin antibody was used for equal loading.

SMILES | IC50 [1] | IC50 [2] | SI (selectivity index) [2] | IC50 [3] | IC50 [4] | clonogenicity / plate colony formation of HepG-2 cells (HepG-2 cells [5]) | fold percentage of apoptotic cells in comparison with the control group (HepG-2 cells [6]; 2.5 μmol/L) | total percentage of apoptotic cells (early and late, Q2 + Q3) (HepG-2 cells [6]; 2.5 μmol/L) | fold percentage of apoptotic cells in comparison with the control group (HepG-2 cells [6]; 5 μmol/L) | total percentage of apoptotic cells (early and late, Q2 + Q3) (HepG-2 cells [6]; 5 μmol/L) | fold percentage of apoptotic cells in comparison with the control group (HepG-2 cells [6]; 10 μmol/L) | total percentage of apoptotic cells (early and late, Q2 + Q3) (HepG-2 cells [6]; 10 μmol/L) | percentage of cells at the G2/M phase (HepG-2 cells [7]; 2.5 μmol/L) | percentage of cells at the G2/M phase (HepG-2 cells [7]; 5 μmol/L) | percentage of cells at the G2/M phase (HepG-2 cells [7]; 10 μmol/L) | PARP cleavage (HepG-2 cells [8]) | expression of anti-apoptotic protein Bcl-2 (HepG-2 cells [8]) | expression of pro-apoptotic protein Bax (HepG-2 cells [8]) | level of cleaved caspase-3 (HepG-2 cells [8]) | level of p53 (HepG-2 cells [8])
N.N.[Cl][Pt][Cl] [cis-DDP, cisplatin, reference compound] | 29.5 ± 3.3 µM | 7.57 ± 0.98 µM | 0.64 | 5.28 ± 0.66 µM | 4.88 ± 1.93 µM |  |  |  |  |  |  |  |  |  |  |  |  |  |  | 
COc1cc(C2CC(c3ccc(F)cc3)=NN2C(N)=S)cc(OC)c1OC (stereo not drawn) [1b] | > 100 µM | 6.78 ± 1.44 µM | >14.75 | 7.63 ± 1.35 µM | > 100 µM | significantly reduced cell viability in a dose-dependent fashion | 1.33 fold | 3.889% | 2.26 fold | 6.581% | 3.53 fold | 10.309% | 25.06% | 56.15% | 71.25% | PARP was cleaved into fragmentation of 89 kDa | decrease in expression | increase in expression | dramatically increased | dramatically increased
CCOc1cc(C2CC(c3ccccc3O)=NN2C(N)=S)cc(Br)c1O (stereo not drawn) [9b, 3-(2-Hydroxyphenyl)-5-(3-ethyoxyl-4-hydroxy-5-bromothiophenyl)-4,5-dihydro-1H-pyrazole-1-carbothioamide] | > 100 µM | 32.2 ± 2.83 µM | >3.10 | 7.74 ± 1.63 µM | > 100 µM |  |  |  |  |  |  |  |  |  |  |  |  |  |  | 
